One experiment addresses Cdk4/CyclinD1 (Homo sapiens (Human), UniProt P11802). In words: Cdk4 kinase inhibition assay with recombinant Cdk4/CyclinD1, Rb substrate, [33P]-ATP filter plate. Format: biochemical. Conditions: 25 μM ATP, read-out: Cdk 4 IC50. In short, it runs like this: (§1)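 Recombinant Cdk4/CyclinD1 or Cdk6/CyclinD3 phosphorylated Rb protein with [33P]-ATP for 1 h at room temperature. Protein was TCA-precipitated on filter plates and bound radioactivity counted. IC50 by nonlinear regression.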

For a further experiment, the target named is Cdk6/CyclinD3 (Homo sapiens (Human), UniProt Q00534). Briefly: Cdk6 kinase inhibition assay with recombinant Cdk6/CyclinD3, Rb substrate, [33P]-ATP filter plate. The conditions noted are these: 25 μM ATP, read-out: Cdk 6 IC50. Format: biochemical. Put shortly: as §1
Cdk6/CyclinD3, sequence (Q00534 whole entry): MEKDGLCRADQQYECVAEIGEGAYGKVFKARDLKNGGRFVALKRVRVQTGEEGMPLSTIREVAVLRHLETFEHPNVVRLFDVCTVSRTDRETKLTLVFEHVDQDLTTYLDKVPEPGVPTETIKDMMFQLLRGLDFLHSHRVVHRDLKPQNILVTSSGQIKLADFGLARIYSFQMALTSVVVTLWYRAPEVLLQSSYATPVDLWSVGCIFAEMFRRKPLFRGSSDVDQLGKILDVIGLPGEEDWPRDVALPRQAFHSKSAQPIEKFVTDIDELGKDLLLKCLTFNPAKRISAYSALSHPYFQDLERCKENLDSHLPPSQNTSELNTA
Cdk6/CyclinD3, sequence (P30281 whole entry partner): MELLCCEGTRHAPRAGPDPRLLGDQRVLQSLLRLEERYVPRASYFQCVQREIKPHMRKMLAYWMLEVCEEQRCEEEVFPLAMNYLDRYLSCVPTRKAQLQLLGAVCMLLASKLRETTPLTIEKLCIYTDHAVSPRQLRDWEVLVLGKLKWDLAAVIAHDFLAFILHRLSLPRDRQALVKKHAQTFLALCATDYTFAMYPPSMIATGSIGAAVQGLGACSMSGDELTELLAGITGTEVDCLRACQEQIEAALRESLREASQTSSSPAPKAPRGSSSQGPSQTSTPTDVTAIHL

Cdk4/CyclinD1, sequence (P11802 whole entry): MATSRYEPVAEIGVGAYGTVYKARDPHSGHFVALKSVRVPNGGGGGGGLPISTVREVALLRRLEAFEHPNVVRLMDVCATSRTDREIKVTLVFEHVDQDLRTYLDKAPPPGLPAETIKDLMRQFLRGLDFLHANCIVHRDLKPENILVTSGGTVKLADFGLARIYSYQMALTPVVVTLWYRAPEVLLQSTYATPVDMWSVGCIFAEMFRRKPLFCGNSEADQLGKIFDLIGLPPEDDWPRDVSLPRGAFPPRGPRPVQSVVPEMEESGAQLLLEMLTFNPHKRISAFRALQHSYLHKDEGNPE
Cdk4/CyclinD1, sequence (P24385 whole entry partner): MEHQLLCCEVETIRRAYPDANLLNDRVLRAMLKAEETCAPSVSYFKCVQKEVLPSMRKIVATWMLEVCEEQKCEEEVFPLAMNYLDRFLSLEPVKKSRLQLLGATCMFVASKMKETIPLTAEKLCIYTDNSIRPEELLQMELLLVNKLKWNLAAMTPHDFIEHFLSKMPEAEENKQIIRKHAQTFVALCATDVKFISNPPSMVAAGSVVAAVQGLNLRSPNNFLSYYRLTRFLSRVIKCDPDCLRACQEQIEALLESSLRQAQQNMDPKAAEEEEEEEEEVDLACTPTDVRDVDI

For `c1cc2c3cnc(Nc4ccc(N5CCNCC5)cn4)nc3n(C3CCCC3)c2nn1` [Example 200, 9-Cyclopentyl-N-(5-(1-piperazinyl)-2-pyridinyl)-9H-pyrimido[5′,4′:4,5]pyrrolo[2,3-c]pyridazin-7-amine], the IC50 (in general, the concentration at which inhibition is half-maximal) on Cdk4/CyclinD1 amounted to 36 nM; on Cdk6/CyclinD3, 13 nM.
In the same order, the values of `COc1cc2c3cnc(Nc4ccc(N5CCNCC5)cn4)nc3n(C3CCCC3)c2nn1` [Example 202, 9-cyclopentyl-3-methoxy-N-(5-(1-piperazinyl)-2-pyridinyl)-9H-pyrimido[5′,4′:4,5]pyrrolo[2,3-c]pyridazin-7-amine] are 141 nM and 520 nM.
In the same order, the values of `CC1(C)CCC(n2c3cnccc3c3cnc(Nc4ccc(N5CCNCC5)cn4)nc32)CC1` [Example 204, 9-(4,4-dimethylcyclohexyl)-N-(5-(1-piperazinyl)-2-pyridinyl)-9H-pyrido[4′,3′:4,5]pyrrolo[2,3-d]pyrimidin-2-amine] are 3.5 nM and 1.1 nM.
As to `Fc1nccc2c3cnc(Nc4ccc(CN5CCNCC5)cn4)nc3n(C3CCCC3)c12` [Example 213, 9-cyclopentyl-8-fluoro-N-(5-(1-piperazinylmethyl)-2-pyridinyl)-9H-pyrido[4′,3′:4,5]pyrrolo[2,3-d]pyrimidin-2-amine], the results for the IC50 on Cdk4/CyclinD1 and at Cdk6/CyclinD3 were 203 nM and 52 nM, respectively.
Turning to `Oc1nccc2c3cnc(Nc4ccc(CN5CCNCC5)cn4)nc3n(C3CCCC3)c12` [Example 214, 9-cyclopentyl-2-((5-(1-piperazinylmethyl)-2-pyridinyl)amino)-9H-pyrido[4′,3′:4,5]pyrrolo[2,3-d]pyrimidin-8-ol], the values for the IC50 at Cdk4/CyclinD1 and on Cdk6/CyclinD3 were 14 nM and 21 nM, respectively.
The like results for `OC1CCN(Cc2ccc(Nc3ncc4c5ccncc5n(C5CCCC5)c4n3)nc2)CC1` [Example 215, 1-((6-((9-cyclopentyl-9H-pyrido[4′,3′:4,5]pyrrolo[2,3-d]pyrimidin-2-yl)amino)-3-pyridinyl)methyl)-4-piperidinol] were, in that order, 4.4 nM and 8.2 nM.
The like results for `OC1CCCN(Cc2ccc(Nc3ncc4c5ccncc5n(C5CCCC5)c4n3)nc2)C1` (stereo not shown) [Example 216, 1-((6-((9-cyclopentyl-9H-pyrido[4′,3′:4,5]pyrrolo[2,3-d]pyrimidin-2-yl)amino)-3-pyridinyl)methyl)-3-piperidinol] were, in that order, 10 nM and 15 nM.
On to `CCOC(=O)CN1CCN(c2ccc(Nc3ncc4c5ccncc5n(C5CCCC5)c4n3)nn2)CC1` [Example 217, ethyl (4-(6-((9-cyclopentyl-9H-pyrido[4′,3′:4,5]pyrrolo[2,3-d]pyrimidin-2-yl)amino)-3-pyridazinyl)-1-piperazinyl)acetate], for which the values for the IC50 on Cdk4/CyclinD1 and on Cdk6/CyclinD3 were 3.6 nM and 9.8 nM, respectively.
In the same order, the values of `O=C(O)CN1CCN(c2ccc(Nc3ncc4c5ccncc5n(C5CCCC5)c4n3)nn2)CC1` [Example 218, (4-(6-((9-cyclopentyl-9H-pyrido[4′,3′:4,5]pyrrolo[2,3-d]pyrimidin-2-yl)amino)-3-pyridazinyl)-1-piperazinyl)acetic acid] are 1.39 nM and 3.6 nM.
In the same order, the values of `CCOC(=O)CN1CCN(Cc2ccc(Nc3ncc4c5ccncc5n(C5CCCC5)c4n3)nc2)CC1` [Example 219, Ethyl (4-((6-((9-cyclopentyl-9H-pyrido[4′,3′:4,5]pyrrolo[2,3-d]pyrimidin-2-yl)amino)-3-pyridinyl)methyl)-1-piperazinyl)acetate] are 5.3 nM and 11 nM.
In the same order, the values of `O=C(O)CN1CCN(Cc2ccc(Nc3ncc4c5ccncc5n(C5CCCC5)c4n3)nc2)CC1` [Example 220, (4-((6-((9-cyclopentyl-9H-pyrido[4′,3′:4,5]pyrrolo[2,3-d]pyrimidin-2-yl)amino)-3-pyridinyl)methyl)-1-piperazinyl)acetic acid] are 1 nM and 3.3 nM.

(Values after patent US8841312B2, “Fused pyridine, pyrimidine and triazine compounds as cell cycle inhibitors” (Amgen Inc., priority 2007, dated 2014).)
